Test results reported in patent US7880007B2, “Bicyclic substituted phenyl piperidine modulators of muscarinic receptors” (Vertex Pharmaceuticals Incorporated, priority 2004, dated 2011).

Key:
Assay type in all cases: cell-based
M4 muscarinic receptor = target: T1, M4 muscarinic receptor (Homo sapiens, UniProt P08173); assay: Functional mobilization of intracellular calcium (FLIPR), M4-CHO cells; conditions: for Emax: 100% efficacy = maximum response obtained with the Carbachol control; for M4 Activity: M4-CHO cells, calcium mobilization (FLIPR)
T1 construct: expressed in transfected cells; host or cells: CHO (M4-CHO)
T1 sequence (P08173 1-479): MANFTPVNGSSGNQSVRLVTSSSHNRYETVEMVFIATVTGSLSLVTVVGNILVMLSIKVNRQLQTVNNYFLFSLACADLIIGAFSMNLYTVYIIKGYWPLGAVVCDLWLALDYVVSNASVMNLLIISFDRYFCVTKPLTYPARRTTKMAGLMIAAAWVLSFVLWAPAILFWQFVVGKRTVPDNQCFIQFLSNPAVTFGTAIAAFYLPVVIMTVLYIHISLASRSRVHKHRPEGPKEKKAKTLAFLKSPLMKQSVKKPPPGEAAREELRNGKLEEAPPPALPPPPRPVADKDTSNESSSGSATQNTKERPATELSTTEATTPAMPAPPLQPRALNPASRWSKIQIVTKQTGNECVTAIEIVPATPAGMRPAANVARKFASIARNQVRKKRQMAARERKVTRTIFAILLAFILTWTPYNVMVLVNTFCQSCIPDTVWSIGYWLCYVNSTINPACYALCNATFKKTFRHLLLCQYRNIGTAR
How it was run: (§1)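 FLIPR fluorescence (ex 488, em 540 nm) recorded 60 sec after compound addition to dye-loaded CHO cells. Agonist mode: compound alone. Antagonist mode: 15 min compound pre-incubation, then carbachol at EC80, or co-application. Efficacy expressed as % of maximal carbachol response.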

M1 muscarinic receptor = target: T2, M1 muscarinic receptor (Homo sapiens, UniProt P11229); assay: Functional mobilization of intracellular calcium (FLIPR), M1-CHO cells; conditions: for Emax: 100% efficacy = maximum response obtained with the Carbachol control; for M1 Activity: M1-CHO cells, calcium mobilization (FLIPR)
T2 construct: expressed in transfected cells; host or cells: CHO (M1-CHO)
T2 sequence (P11229 1-460): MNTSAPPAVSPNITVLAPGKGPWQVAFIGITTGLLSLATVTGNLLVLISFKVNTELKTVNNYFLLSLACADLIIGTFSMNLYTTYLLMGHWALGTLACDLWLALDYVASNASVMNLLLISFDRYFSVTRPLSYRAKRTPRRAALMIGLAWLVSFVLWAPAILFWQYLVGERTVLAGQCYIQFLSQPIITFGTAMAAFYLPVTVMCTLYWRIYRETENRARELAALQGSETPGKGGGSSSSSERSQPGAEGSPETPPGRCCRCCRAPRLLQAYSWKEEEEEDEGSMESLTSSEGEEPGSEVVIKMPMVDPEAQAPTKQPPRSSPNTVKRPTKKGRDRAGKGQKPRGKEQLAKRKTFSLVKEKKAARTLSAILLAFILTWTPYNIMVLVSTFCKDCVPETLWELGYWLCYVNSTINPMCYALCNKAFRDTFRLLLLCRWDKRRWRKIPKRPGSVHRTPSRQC
How it was run: as §1

M3 muscarinic receptor = target: T3, M3 muscarinic receptor (Homo sapiens, UniProt P20309); assay: Functional mobilization of intracellular calcium (FLIPR), M3-CHO cells; conditions: for Emax: 100% efficacy = maximum response obtained with the Carbachol control; for M3 Activity: M3-CHO cells, calcium mobilization (FLIPR)
T3 construct: expressed in transfected cells; host or cells: CHO (M3-CHO)
T3 sequence (P20309 whole entry): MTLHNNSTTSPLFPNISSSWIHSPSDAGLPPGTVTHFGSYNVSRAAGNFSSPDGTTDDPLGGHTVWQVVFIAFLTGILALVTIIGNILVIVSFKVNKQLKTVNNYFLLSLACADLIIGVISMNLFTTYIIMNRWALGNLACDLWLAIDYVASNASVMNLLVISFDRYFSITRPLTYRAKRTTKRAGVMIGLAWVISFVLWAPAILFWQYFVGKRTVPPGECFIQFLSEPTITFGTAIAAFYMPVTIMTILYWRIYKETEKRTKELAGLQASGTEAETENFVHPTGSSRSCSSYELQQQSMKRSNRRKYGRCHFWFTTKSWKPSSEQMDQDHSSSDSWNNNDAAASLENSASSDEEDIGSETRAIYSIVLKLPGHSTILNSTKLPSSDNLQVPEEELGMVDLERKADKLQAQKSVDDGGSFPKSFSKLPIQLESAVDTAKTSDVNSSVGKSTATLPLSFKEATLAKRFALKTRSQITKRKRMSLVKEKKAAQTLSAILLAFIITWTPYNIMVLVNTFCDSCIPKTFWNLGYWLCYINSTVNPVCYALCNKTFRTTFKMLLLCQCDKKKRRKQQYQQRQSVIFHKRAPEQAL
How it was run: as §1

M2 muscarinic receptor = target: T4, M2 muscarinic receptor (Homo sapiens, UniProt P08172); assay: Functional mobilization of intracellular calcium (FLIPR), M2-CHO cells; conditions: for Emax: 100% efficacy = maximum response obtained with the Carbachol control; for M2 Activity: M2-CHO cells, calcium mobilization (FLIPR)
T4 construct: expressed in transfected cells; host or cells: CHO (M2-CHO)
T4 sequence (P08172 1-466): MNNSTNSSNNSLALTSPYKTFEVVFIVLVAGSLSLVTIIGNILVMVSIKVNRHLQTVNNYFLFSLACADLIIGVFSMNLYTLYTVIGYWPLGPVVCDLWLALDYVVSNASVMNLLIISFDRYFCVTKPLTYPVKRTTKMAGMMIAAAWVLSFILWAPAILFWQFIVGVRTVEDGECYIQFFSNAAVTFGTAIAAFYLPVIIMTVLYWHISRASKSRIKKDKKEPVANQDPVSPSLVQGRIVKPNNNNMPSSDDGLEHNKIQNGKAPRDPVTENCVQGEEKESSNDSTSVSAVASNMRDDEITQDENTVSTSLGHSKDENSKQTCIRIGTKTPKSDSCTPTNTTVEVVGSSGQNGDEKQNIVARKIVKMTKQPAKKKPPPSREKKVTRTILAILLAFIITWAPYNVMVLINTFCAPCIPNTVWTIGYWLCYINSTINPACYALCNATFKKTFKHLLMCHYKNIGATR
How it was run: as §1

Row | SMILES | Emax (M4 muscarinic receptor) [%] | Emax (M1 muscarinic receptor) [%] | Emax (M3 muscarinic receptor) [%] | Emax (M2 muscarinic receptor) [%] | M4 Activity (M4 muscarinic receptor) | M1 Activity (M1 muscarinic receptor) | M3 Activity (M3 muscarinic receptor) | M2 Activity (M2 muscarinic receptor)
1 | COc1ccccc1C1CCN(C2CCCS(=O)(=O)CC2)CC1 (stereo not shown) [Compound 66] | 25 to 100 | 25 to 100 | < 25 | < 25 | ++ (activity was measured to be from 1.0 μM to 5.0 μM) | + (activity was measured to be greater than 5.0 μM) | + (activity was measured to be greater than 5.0 μM) | + (activity was measured to be greater than 5.0 μM)
2 | COc1ccc(-c2ccccc2C)cc1C1CCN([C@@H]2C[C@H]3CC[C@H]2C3)CC1 [Compound 67] | 25 to 100 | < 25 | < 25 | < 25 | + (activity was measured to be greater than 5.0 μM) | + (activity was measured to be greater than 5.0 μM) | + (activity was measured to be greater than 5.0 μM) | + (activity was measured to be greater than 5.0 μM)
3 | CCOc1ccccc1C1CCN([C@H]2C[C@H]3CC[C@H]2C3)CC1 [Compound 68] | 25 to 100 | 25 to 100 | < 25 | < 25 | +++ (activity was measured to be less than 1.0 μM) | ++ (activity was measured to be from 1.0 μM to 5.0 μM) | + (activity was measured to be greater than 5.0 μM) | + (activity was measured to be greater than 5.0 μM)
4 | COc1cccc(-c2ccc(OC)c(C3CCN([C@@H]4C[C@H]5CC[C@H]4C5)CC3)c2)c1 [Compound 69] | 25 to 100 | < 25 | < 25 | < 25 | + (activity was measured to be greater than 5.0 μM) | + (activity was measured to be greater than 5.0 μM) | + (activity was measured to be greater than 5.0 μM) | + (activity was measured to be greater than 5.0 μM)
5 | FC(F)(F)Oc1ccccc1C1CCN(C2CCOCC2)CC1 [Compound 70] | 25 to 100 | 25 to 100 | < 25 | < 25 | ++ (activity was measured to be from 1.0 μM to 5.0 μM) | + (activity was measured to be greater than 5.0 μM) | + (activity was measured to be greater than 5.0 μM) | + (activity was measured to be greater than 5.0 μM)

Continued, in another order:

Row | Emax (M4 muscarinic receptor) [%] | Emax (M1 muscarinic receptor) [%] | Emax (M3 muscarinic receptor) [%] | Emax (M2 muscarinic receptor) [%] | SMILES | M4 Activity (M4 muscarinic receptor) | M1 Activity (M1 muscarinic receptor) | M3 Activity (M3 muscarinic receptor) | M2 Activity (M2 muscarinic receptor)
6 | < 25 | < 25 | < 25 | < 25 | COc1ccccc1C1CCN(C2CCN(C(=O)c3ccccc3)CC2)CC1 [Compound 71] | + (activity was measured to be greater than 5.0 μM) | + (activity was measured to be greater than 5.0 μM) | + (activity was measured to be greater than 5.0 μM) | + (activity was measured to be greater than 5.0 μM)
7 | 25 to 100 | 25 to 100 | < 25 | 25 to 100 | Cc1ccc(F)cc1C1CCN(C2C[C@H]3CC[C@H]2C3)CC1 (stereo partly shown) [Compound 73] | +++ (activity was measured to be less than 1.0 μM) | ++ (activity was measured to be from 1.0 μM to 5.0 μM) | + (activity was measured to be greater than 5.0 μM) | ++ (activity was measured to be from 1.0 μM to 5.0 μM)
8 | < 25 | < 25 | < 25 | < 25 | COc1ccc(Cl)cc1C1(F)CCN(C2C3CCCC2CCC3)CC1 (stereo not shown) [Compound 74] | + (activity was measured to be greater than 5.0 μM) | + (activity was measured to be greater than 5.0 μM) | + (activity was measured to be greater than 5.0 μM) | + (activity was measured to be greater than 5.0 μM)
